In patent US20080269167A1, “Preparation Comprising Iron(III) Complex Compounds And Redox-Active Substance(s)” (VIFOR (INTERNATIONAL) AG, priority 2005, published 2008):

What was measured:
[1] = pH 7; relative to normal hydrogen electrode; cited from earlier work
[2] = Reaction of iron(III)-polymaltose complex with ascorbic acid in buffered solution, UV-VIS, exclusion of oxygen; format: physicochemical
Description: The following measurements were obtained when iron(III)-polymaltose complex with ascorbic acid (ascorbic acid) was investigated at pH 3.0, 5.5 and 8.0:
The buffered solutions (buffers as described above, see Geisser, P., Arneim. -Forsch./Drug Res. 1990, 40 (II), 7, 754-760) were mixed in a molar ratio of Fe(III):ascorbic acid of 1:1, the concentration of Fe(III) and ascorbic acid in the mixture being 5×10^−5 mol/l in each case, and investigated using a conventional UV-VIS spectrophotometer. The operation was carried out with the strict exclusion of oxygen.

[3] = pH 3.0, reaction time 2 h, Fe(III):ascorbic acid 1:1, 5x10^-5 mol/l
[4] = pH 3.0, reaction time 4 h, Fe(III):ascorbic acid 1:1
[5] = pH 5.5, reaction time 2 h, Fe(III):ascorbic acid 1:1
[6] = pH 8.0, reaction time 2 h, Fe(III):ascorbic acid 1:1
[7] = pH 8.0, reaction time 4 h, Fe(III):ascorbic acid 1:1

O=C1O[C@H]([C@@H](O)CO)C(O)=C1O [ascorbic acid, reference compound]
redox potential [1]: −66 mV

iron(III)-polymaltose complex
reaction with ascorbic acid to give dehydroascorbic acid ([2]; pH 3, 5.5 and 8, buffered solution, exclusion of oxygen): does not react | Formation of Fe2+ ions [2, 3]: 2% | Formation of dehydroascorbic acid [2, 3]: 2% | Formation of Fe2+ ions [2, 4]: 7% | Formation of dehydroascorbic acid [2, 4]: 7% | Formation of Fe2+ ions [2, 5]: 0% | Formation of dehydroascorbic acid [2, 5]: 0% | Formation of Fe2+ ions [2, 6]: 5% | Formation of dehydroascorbic acid [2, 6]: 9% | Formation of Fe2+ ions [2, 7]: 5% | Formation of dehydroascorbic acid [2, 7]: 13% | reaction with ascorbic acid to dehydroascorbic acid and Fe(II) ([2]; within a period of 4 hours, pH values of from 3 to 8): reacts only slowly | redox potential [1]: −332 mV
